Measurements reported in US8106055B2, “Substituted amide compounds” (Gruenenthal GmbH, priority 2007, dated 2012).

Assays:
[1] = molecular target: T1, serotonin (5-HT) reuptake (Rattus norvegicus, UniProt P31652); test: Inhibition of serotonin (5HT) reuptake in synaptosomes from rat brain; assay type: biochemical; settings: test concentration of 10 μM
T1 construct: synaptosomes are freshly isolated from areas of the rat brain; from tissue; host or cells: rat brain synaptosomes (P2 fraction)
How it was run: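 Compounds screened at 10 μM and reported as percent inhibition of serotonin uptake. Uptake measured in a freshly prepared P2 synaptosomal fraction from rat brain.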

[2] = molecular target: T2, human bradykinin 1 receptor (B1R) (Homo sapiens, UniProt P46663); test: Functional investigation on the human bradykinin 1 receptor (B1R), Ca2+ FLIPR assay in CHO K1 hB1R cells; assay type: cell-based; settings: B1R antagonism human; test substance 10 μM; Ca2+ FLIPR, CHO K1 hB1R cells
T2 construct: expressed in transfected cells; host or cells: CHO K1 cells
T2 sequence (P46663 1-353): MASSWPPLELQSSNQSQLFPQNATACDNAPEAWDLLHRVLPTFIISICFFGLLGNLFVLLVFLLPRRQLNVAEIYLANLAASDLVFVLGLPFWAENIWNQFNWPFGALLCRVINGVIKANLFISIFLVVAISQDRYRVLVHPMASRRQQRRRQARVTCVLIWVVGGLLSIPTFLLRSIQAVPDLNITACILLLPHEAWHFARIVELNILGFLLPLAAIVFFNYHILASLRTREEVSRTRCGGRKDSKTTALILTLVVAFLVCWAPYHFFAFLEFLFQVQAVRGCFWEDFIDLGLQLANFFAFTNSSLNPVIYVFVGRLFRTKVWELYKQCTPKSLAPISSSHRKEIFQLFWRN
How it was run: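 Peak Ca2+-dependent fluorescence in B1R-transfected CHO K1 cells measures antagonism of an EC80 agonist challenge given 10-20 min after compound. Agonist is Lys-Des-Arg9-bradykinin for human, Des-Arg9-bradykinin for rat receptor.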

T1 sequence (P31652 whole entry): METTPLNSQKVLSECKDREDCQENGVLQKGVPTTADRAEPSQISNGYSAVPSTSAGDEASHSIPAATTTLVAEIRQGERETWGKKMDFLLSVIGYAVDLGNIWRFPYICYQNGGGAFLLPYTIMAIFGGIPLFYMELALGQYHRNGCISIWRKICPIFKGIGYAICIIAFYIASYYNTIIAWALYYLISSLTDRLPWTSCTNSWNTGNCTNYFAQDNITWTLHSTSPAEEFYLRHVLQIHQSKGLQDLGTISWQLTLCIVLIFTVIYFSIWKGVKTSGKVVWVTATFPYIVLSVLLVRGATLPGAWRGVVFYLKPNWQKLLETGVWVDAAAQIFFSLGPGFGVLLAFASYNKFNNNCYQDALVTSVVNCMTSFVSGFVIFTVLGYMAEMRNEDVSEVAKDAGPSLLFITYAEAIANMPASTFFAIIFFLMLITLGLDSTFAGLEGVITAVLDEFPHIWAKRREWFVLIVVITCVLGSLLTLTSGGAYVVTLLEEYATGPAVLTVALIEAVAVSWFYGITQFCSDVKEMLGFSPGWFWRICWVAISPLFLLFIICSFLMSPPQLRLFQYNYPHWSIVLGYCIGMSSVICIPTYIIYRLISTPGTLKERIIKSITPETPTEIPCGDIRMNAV

| Structure (SMILES) | 5-HT (inhibition of reuptake of serotonin, % inhibition) [1] | B1R Ant. h [10 μM] % Inhibition [2] |
| --- | --- | --- |
| Cc1ccc(S(=O)(=O)N2CCC(OCC(=O)NCCC3CCC(C(c4ccc(F)cc4)N(C)C)CC3)C2)cc1 (stereo not drawn) [Example 491] | 90% | 5% |
| COc1cc(C)c(S(=O)(=O)N2CCC(OCC(=O)NCCC3CCC(C(c4ccc(Cl)cc4)N(C)C)CC3)C2)c(C)c1 (stereo not drawn) [Example 492] | 97% | 105% |
| CN(C)C(c1ccc(F)cc1)C1CCC(CCNC(=O)COCCN2CCN(S(=O)(=O)c3ccccc3)CC2)CC1 (stereo not drawn) [Example 493] | 96% | −13% |
| COc1cc(C)c(S(=O)(=O)N(CCOCC(=O)NCC2CCC(C(c3ccc(F)cc3)N(C)C)CC2)Cc2ccccc2)c(C)c1 (stereo not drawn) [Example 494] | 89% | 86% |
| CN(C)C(CCc1ccccc1)C1CCC(CNC(=O)COC2CCN(S(=O)(=O)c3ccc(Cl)cc3Cl)C2)CC1 (stereo not drawn) [Example 496] | 89% | 98% |
| COc1ccc(S(=O)(=O)N2CCC(OCC(=O)NCC3CCC(C(c4ccc(F)cc4)N(C)C)CC3)C2)cc1OC (stereo not drawn) [Example 497] | 86% | −4% |
| COc1cc(C)c(S(=O)(=O)N2CCC(OCC(=O)NCC3CCC(C(c4ccc(Cl)cc4)N(C)C)CC3)CC2)c(C)c1C (stereo not drawn) [Example 498] | 88% | 17% |
| COc1cc(C)c(S(=O)(=O)N2CCC(CCOCC(=O)NCC3CCC(C(c4ccc(Cl)cc4)N(C)C)CC3)CC2)c(C)c1C (stereo not drawn) [Example 499] | 75% | 25% |
| COc1ccc(S(=O)(=O)N2CCCCC2COCC(=O)NCCC2CCC(C(c3ccc(F)cc3)N(C)C)CC2)c(OC)c1 (stereo not drawn) [Example 500] | 90% | 3% |
| Cc1cc(C)c(S(=O)(=O)N2CCC(OCC(=O)NCCC3CCC(C(c4ccc(F)cc4)N(C)C)CC3)C2)c(C)c1 (stereo not drawn) [Example 501] | 77% | 77% |
| CN(C)C(c1ccc(F)cc1)C1CCC(NC(=O)COCCN2CCN(S(=O)(=O)c3ccccc3)CC2)CC1 (stereo not drawn) [Example 502] | 97% | −3% |
| COc1cc(C)c(S(=O)(=O)N2CCC(OCC(=O)NCC3CCC(C(CCc4ccccc4)N(C)C)CC3)C2)c(C)c1C (stereo not drawn) [Example 503] | 90% | 105% |
| COc1cc(C)c(S(=O)(=O)N(CCOCC(=O)NC2CCC(C(c3ccc(F)cc3)N(C)C)CC2)Cc2ccccc2)c(C)c1 (stereo not drawn) [Example 504] | 89% | 69% |
| Cc1cc(C)c(S(=O)(=O)N2CCC(OCC(=O)NCCC3CCC(C(c4ccc(Cl)cc4)N(C)C)CC3)C2)c(C)c1 (stereo not drawn) [Example 506] | 86% | 83% |
| CN(C)C(c1ccccc1)C1CCC(CNC(=O)COCCC2CCN(S(=O)(=O)c3ccccc3)CC2)CC1 (stereo not drawn) [Example 507] | 75% | −19% |
| COc1ccc(S(=O)(=O)N(C)CCOCC(=O)NCC2CCC(C(c3ccc(F)cc3)N(C)C)CC2)cc1 (stereo not drawn) [Example 508] | 80% | 46% |
| COc1cc(C)c(S(=O)(=O)N2CCC(OCC(=O)NCCC3CCC(C(c4ccc(F)cc4)N(C)C)CC3)C2)c(C)c1 (stereo not drawn) [Example 509] | 97% | 104% |
| COc1cc(C)c(S(=O)(=O)N2CCC(CCOCC(=O)NCCC3CCC(C(c4ccc(F)cc4)N(C)C)CC3)CC2)c(C)c1C (stereo not drawn) [Example 510] | 99% | 15% |
| COc1ccc(S(=O)(=O)N2CCCC2COCC(=O)NCC2CCC(C(c3ccc(F)cc3)N(C)C)CC2)cc1 (stereo not drawn) [Example 511] | 98% | 38% |
| COc1ccc(S(=O)(=O)N2CCC(OCC(=O)NC3CCC(C(c4ccc(F)cc4)N(C)C)CC3)C2)cc1OC (stereo not drawn) [Example 512] | 86% | −4% |
| CN(C)C(CCc1ccccc1)C1CCC(CNC(=O)COCCN(C)S(=O)(=O)c2ccc(Cl)cc2Cl)CC1 (stereo not drawn) [Example 513] | 89% | 100% |

| Structure (SMILES) | 5-HT (inhibition of reuptake of serotonin, % inhibition) [1] | B1R Ant. h [10 μM] % Inhibition [2] |
| --- | --- | --- |
| COc1ccc(S(=O)(=O)N(C)CCOCC(=O)NCC2CCC(C(c3ccc(F)cc3)N(C)C)CC2)cc1OC (stereo not drawn) [Example 514] | 70% | −6% |
| CN(C)C(CCc1ccccc1)C1CCC(CNC(=O)COCCN(C)S(=O)(=O)c2c(Cl)cc(Cl)cc2Cl)CC1 (stereo not drawn) [Example 515] | 97% | 101% |
| CN(C)C(c1ccc(F)cc1)C1CCC(CNC(=O)COC2CCN(S(=O)(=O)c3ccc(Cl)cc3)C2)CC1 (stereo not drawn) [Example 517] | 86% | −13% |
| CN(C)C(c1ccc(F)cc1)C1CCC(CCNC(=O)COC2CCN(S(=O)(=O)c3ccc(F)cc3)C2)CC1 (stereo not drawn) [Example 518] | 102% | −2% |
| COc1ccc(S(=O)(=O)N(C)CCOCC(=O)NCCC2CCC(C(c3ccc(F)cc3)N(C)C)CC2)cc1 (stereo not drawn) [Example 519] | 88% | 38% |
| CN(C)C(c1ccc(F)cc1)C1CCC(CCNC(=O)COC2CCCN(S(=O)(=O)c3ccccc3)C2)CC1 (stereo not drawn) [Example 520] | 97% | −4% |
| COc1cc(C)c(S(=O)(=O)N2CCC(CCOCC(=O)NCC3CCC(C(CCc4ccccc4)N(C)C)CC3)CC2)c(C)c1C (stereo not drawn) [Example 521] | 89% | 66% |
| CN(C)C(c1ccc(F)cc1)C1CCC(CNC(=O)COC2CCN(S(=O)(=O)c3ccc(F)cc3)C2)CC1 (stereo not drawn) [Example 522] | 98% | 1% |
| COc1cc(C)c(S(=O)(=O)N(CCOCC(=O)NC2CCC(C(c3ccc(F)cc3)N(C)C)CC2)Cc2ccccc2)c(C)c1C (stereo not drawn) [Example 523] | 81% | 50% |
| COc1ccc(S(=O)(=O)N2CCCCC2COCC(=O)NC2CCC(C(c3ccc(F)cc3)N(C)C)CC2)c(OC)c1 (stereo not drawn) [Example 524] | 86% | −11% |
| COc1cc(C)c(S(=O)(=O)N(C)CCOCC(=O)NCC2CCC(C(CCc3ccccc3)N(C)C)CC2)c(C)c1 (stereo not drawn) [Example 525] | 84% | 99% |
| CN(C)C(CCc1ccccc1)C1CCC(CNC(=O)COCCN2CCN(S(=O)(=O)c3ccccc3)CC2)CC1 (stereo not drawn) [Example 526] | 90% | 10% |
| COc1cc(C)c(S(=O)(=O)N2CCC(OCC(=O)NCC3CCC(C(c4ccc(F)cc4)N(C)C)CC3)CC2)c(C)c1C (stereo not drawn) [Example 527] | 96% | 57% |
| COc1cc(C)c(S(=O)(=O)N2CCN(CCOCC(=O)NCC3CCC(C(CCc4ccccc4)N(C)C)CC3)CC2)c(C)c1C (stereo not drawn) [Example 528] | 94% | 98% |
| CN(C)C(c1ccc(F)cc1)C1CCC(CCNC(=O)COC2CCN(S(=O)(=O)c3ccccc3)C2)CC1 (stereo not drawn) [Example 530] | 89% | −18% |
| CN(C)C(c1ccc(Cl)cc1)C1CCC(CCNC(=O)COCCC2CCN(S(=O)(=O)c3ccccc3)CC2)CC1 (stereo not drawn) [Example 531] | 98% | 2% |
| CN(C)C(c1ccc(F)cc1)C1CCC(CNC(=O)COC2CCN(S(=O)(=O)c3ccccc3)C2)CC1 (stereo not drawn) [Example 532] | 99% | 5% |
| CN(C)C(CCc1ccccc1)C1CCC(CNC(=O)COCCN(Cc2ccccc2)S(=O)(=O)c2ccccc2)CC1 (stereo not drawn) [Example 533] | 93% | 35% |
| COc1ccc(S(=O)(=O)N2CCCCC2CCOCC(=O)NCC2CCC(C(CCc3ccccc3)N(C)C)CC2)cc1 (stereo not drawn) [Example 535] | 85% | 77% |
| CCN(CCOCC(=O)NCC1CCC(C(CCc2ccccc2)N(C)C)CC1)S(=O)(=O)c1c(C)cc(OC)c(C)c1C (stereo not drawn) [Example 536] | 84% | 105% |
| Cc1ccc(S(=O)(=O)N2CCC(OCC(=O)NCC3CCC(C(CCc4ccccc4)N(C)C)CC3)C2)cc1 (stereo not drawn) [Example 538] | 91% | 7% |
